In US11000033B2, “Ketone or oxime compound, and herbicide” (NISSAN CHEMICAL CORPORATION, priority 2014, dated 2021):

Assays:
Type in all cases: in vivo
soybean = experiment: Test Example 5: effect on crop by foliage application, plastic box (symbol d); conditions: 320 g/ha, 3 weeks after application
Procedure, shortened: (§1)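 Greenhouse culture at 25° C. to 30° C. followed spot-like sowing into sterilized diluvial soil, with seed covered by roughly 1.5 cm of soil.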

Galium spurium = experiment: Test Example 5: herbicidal effect by foliage application, plastic box (symbol Q); conditions: 320 g/ha, 3 weeks after application
Procedure, shortened: (§2)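 Emulsion formulation, diluted with water to the intended rate, was applied uniformly to leaves by small sprayer. Recipients were 14-day greenhouse-grown seedlings (25° C. to 30° C.). Assessment followed at 3 weeks.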

Amaranthus retroflexus = experiment: Test Example 4: herbicidal effect by soil treatment (symbol N)
Procedure, shortened: (§3)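 Seeds were sown in sterilized diluvial soil, covered with about 1.5 cm of soil, and the soil surface was sprayed with a water-diluted emulsion of the compound at a predetermined rate. Plants grew in a greenhouse at 25° C. to 30° C.; effects were scored visually 3 weeks after application.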

rice plant = experiment: Test Example 5: effect on crop by foliage application, plastic box (symbol b); conditions: 320 g/ha, 3 weeks after application
Procedure, shortened: as §1

Lolium multiflorum Lam. = experiment: Test Example 4: herbicidal effect by soil treatment (symbol K)
Procedure, shortened: as §3

Abutilon theophrasti = experiment: Test Example 5: herbicidal effect by foliage application, plastic box (symbol M); conditions: 320 g/ha, 3 weeks after application
Procedure, shortened: as §2

Stellaria media = experiment: Test Example 5: herbicidal effect by foliage application, plastic box (symbol P); conditions: 320 g/ha, 3 weeks after application
Procedure, shortened: as §2

rice = experiment: Test Example 4: effect on crop by soil treatment (symbol b); conditions: for b: directly sowed rice plant, effect grade on crop: 320 g/ha
Procedure, shortened: (§4)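 Plants grew in a 25° C. to 30° C. greenhouse after spot-sowing of seeds, including beet, rapeseed, wheat and rice, into sterilized diluvial soil under roughly 1.5 cm of cover soil.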

Leptochloa chinensis = experiment: Test Example 3: herbicidal effect by foliage application, Wagner pot (symbol D); conditions: application herbicide amount 320 g/ha
Procedure, shortened: (§5)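 Scoring took place 3 weeks after application, using fixed criteria. Plants had been raised from seed for 14 days at 25 to 30 °C in submerged alluvial soil before a diluted emulsion of the test compound was sprayed uniformly on the leaves.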

Setaria viridis = experiment: Test Example 5: herbicidal effect by foliage application, plastic box (symbol G); conditions: 320 g/ha, 3 weeks after application
Procedure, shortened: as §2

Digitaria ciliaris = experiment: Test Example 4: herbicidal effect by soil treatment (symbol F)
Procedure, shortened: as §3

Scirpus juncoides = experiment: Test Example 1: herbicidal activity, application before weed generation in submerged conditions (symbol B); conditions: application herbicide amount 320 g/ha
Procedure, shortened: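 Mixed weed seeds sown in alluvial soil under 4 cm of water, with rice seedlings at the 2.5-leaf stage added. Same-day treatment: emulsion diluted to a set herbicide amount onto the water. Three weeks at 25–30 °C, then graded on a six-step scale.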

beet = experiment: Test Example 4: effect on crop by soil treatment (symbol f); conditions: for f: beet, effect grade on crop: 320 g/ha
Procedure, shortened: as §4

[1] = test system: Echinochloa crus-galli var. crus-galli; experiment: Test Example 4: herbicidal effect by soil treatment (symbol H)
Procedure, shortened: as §3

Veronica persica = experiment: Test Example 5: herbicidal effect by foliage application, plastic box (symbol R); conditions: 320 g/ha, 3 weeks after application
Procedure, shortened: as §2

Chenopodium album [2] = experiment: Test Example 4: herbicidal effect by soil treatment (symbol O)
Procedure, shortened: as §3

Alopecurus myosuroides = experiment: Test Example 5: herbicidal effect by foliage application, plastic box (symbol J); conditions: 320 g/ha, 3 weeks after application
Procedure, shortened: as §2

Chenopodium album [3] = experiment: Test Example 5: herbicidal effect by foliage application, plastic box (symbol O); conditions: 320 g/ha, 3 weeks after application
Procedure, shortened: as §2

Cyperus difformis = experiment: Test Example 3: herbicidal effect by foliage application, Wagner pot (symbol E); conditions: application herbicide amount 320 g/ha
Procedure, shortened: as §5

[4] = application herbicide amount 320 g/ha

| SMILES | d: soybean, effect on crop (criteria 0-5) (soybean) | Q: Galium spurium, herbicidal effect (criteria 0-5) (Galium spurium) | N: Amaranthus retroflexus, herbicidal effect grade (Amaranthus retroflexus; 320 g/ha) | b: directly sowed rice plant, effect on crop (criteria 0-5) (rice plant) | K: Lolium multiflorum Lam., herbicidal effect grade (Lolium multiflorum Lam.; 320 g/ha) | M: Abutilon theophrasti, herbicidal effect (criteria 0-5) (Abutilon theophrasti) | P: Stellaria media, herbicidal effect (criteria 0-5) (Stellaria media) | b: directly sowed rice plant, effect grade on crop (rice) | herbicidal effect on D (Leptochloa chinensis), grade 0-5 (Leptochloa chinensis) | G: Setaria viridis, herbicidal effect (criteria 0-5) (Setaria viridis) | F: Digitaria ciliaris, herbicidal effect grade (Digitaria ciliaris; 320 g/ha) | Herbicidal effect grade, B: Scirpus juncoides (Scirpus juncoides) | f: beet, effect grade on crop (beet) | H: Echinochloa crus-galli var. crus-galli, herbicidal effect grade ([1]; 320 g/ha) | R: Veronica persica, herbicidal effect (criteria 0-5) (Veronica persica) | O: Chenopodium album, herbicidal effect grade (Chenopodium album [2]; 320 g/ha) | J: Alopecurus myosuroides, herbicidal effect (criteria 0-5) (Alopecurus myosuroides) | O: Chenopodium album, herbicidal effect (criteria 0-5) (Chenopodium album [3]) | other results |
| --- | --- | --- | --- | --- | --- | --- | --- | --- | --- | --- | --- | --- | --- | --- | --- | --- | --- | --- | --- |
| C=CCOC(=O)OC1=C(c2c(C)cc(C)cc2C)C(=O)C(CC(C)=NOC)C1 (stereo not drawn) [1-146] | 4 (Herbicidal ratio of 70% or higher and lower than 90%) | 3 (Herbicidal ratio of 40% or higher and lower than 70%) | 5 (Herbicidal ratio of 90% or more (almost completely withered)) | 5 (Herbicidal ratio of 90% or more (almost completely withered)) | 5 (Herbicidal ratio of 90% or more (almost completely withered)) | 5 (Herbicidal ratio of 90% or more (almost completely withered)) | 3 (Herbicidal ratio of 40% or higher and lower than 70%) | 5 (Herbicidal ratio of 90% or more (almost completely withered)) | 5 (Herbicidal ratio of 90% or more (almost completely withered)) | 5 (Herbicidal ratio of 90% or more (almost completely withered)) | 5 (Herbicidal ratio of 90% or more (almost completely withered)) | 5 (Herbicidal ratio of 90% or more (almost completely withered)) | 3 (Herbicidal ratio of 40% or higher and lower than 70%) | 5 (Herbicidal ratio of 90% or more (almost completely withered)) | 3 (Herbicidal ratio of 40% or higher and lower than 70%) | 0 (Herbicidal ratio of 5% or lower (almost no effect)) | 5 (Herbicidal ratio of 90% or more (almost completely withered)) | 2 (Herbicidal ratio of 20% or higher and lower than 40%) |  |
| COCCOC(=O)OC1=C(c2c(C)cc(C)cc2C)C(=O)C(CC(C)=NOC)C1 (stereo not drawn) [1-147] | 3 (Herbicidal ratio of 40% or higher and lower than 70%) | 4 (Herbicidal ratio of 70% or higher and lower than 90%) | 5 (Herbicidal ratio of 90% or more (almost completely withered)) | 5 (Herbicidal ratio of 90% or more (almost completely withered)) | 5 (Herbicidal ratio of 90% or more (almost completely withered)) | 4 (Herbicidal ratio of 70% or higher and lower than 90%) | 3 (Herbicidal ratio of 40% or higher and lower than 70%) | 5 (Herbicidal ratio of 90% or more (almost completely withered)) | 5 (Herbicidal ratio of 90% or more (almost completely withered)) | 5 (Herbicidal ratio of 90% or more (almost completely withered)) | 5 (Herbicidal ratio of 90% or more (almost completely withered)) | 5 (Herbicidal ratio of 90% or more (almost completely withered)) | 0 (Herbicidal ratio of 5% or lower (almost no effect)) | 5 (Herbicidal ratio of 90% or more (almost completely withered)) | 4 (Herbicidal ratio of 70% or higher and lower than 90%) | 0 (Herbicidal ratio of 5% or lower (almost no effect)) | 5 (Herbicidal ratio of 90% or more (almost completely withered)) | 1 (Herbicidal ratio of 5% or higher and lower than 20%) |  |
| CON=C(C)CC1CC(OC(=O)N2CCCCC2)=C(c2c(C)cc(C)cc2C)C1=O (stereo not drawn) [1-151] | 2 (Herbicidal ratio of 20% or higher and lower than 40%) | 0 (Herbicidal ratio of 5% or lower (almost no effect)) | 0 (Herbicidal ratio of 5% or lower (almost no effect)) | 4 (Herbicidal ratio of 70% or higher and lower than 90%) | 5 (Herbicidal ratio of 90% or more (almost completely withered)) | 3 (Herbicidal ratio of 40% or higher and lower than 70%) | 0 (Herbicidal ratio of 5% or lower (almost no effect)) | 1 (Herbicidal ratio of 5% or higher and lower than 20%) | 4 (Herbicidal ratio of 70% or higher and lower than 90%) | 5 (Herbicidal ratio of 90% or more (almost completely withered)) | 5 (Herbicidal ratio of 90% or more (almost completely withered)) | 3 (Herbicidal ratio of 40% or higher and lower than 70%) | 0 (Herbicidal ratio of 5% or lower (almost no effect)) | 0 (Herbicidal ratio of 5% or lower (almost no effect)) | 1 (Herbicidal ratio of 5% or higher and lower than 20%) | 0 (Herbicidal ratio of 5% or lower (almost no effect)) | 5 (Herbicidal ratio of 90% or more (almost completely withered)) | 0 (Herbicidal ratio of 5% or lower (almost no effect)) |  |
| CCC(=O)CC1CC(O)=C(c2c(C)cc(C)cc2C)C1=O (stereo not drawn) [2-006] |  |  |  |  |  |  |  |  |  |  |  | 2 (Herbicidal ratio of 20% or higher and lower than 40%) |  |  |  |  |  |  | d: soybean, effect on crop grade (soybean): 0 (Herbicidal ratio of 5% or lower (almost no effect)); Q: Galium spurium, herbicidal effect grade (Galium spurium): 0 (Herbicidal ratio of 5% or lower (almost no effect)); N: Amaranthus retroflexus, herbicidal effect grade (Amaranthus retroflexus; [4]): 0 (Herbicidal ratio of 5% or lower (almost no effect)); b: directly sowed rice plant, effect on crop grade (rice plant): 4 (Herbicidal ratio of 70% or higher and lower than 90%); herbicidal effect on E, grade 0-5 (Cyperus difformis): 5 (Herbicidal ratio of 90% or more (almost completely withered)); K: Lolium multiflorum Lam., herbicidal effect grade (Lolium multiflorum Lam.; [4]): 5 (Herbicidal ratio of 90% or more (almost completely withered)); M: Abutilon theophrasti, herbicidal effect grade (Abutilon theophrasti): 0 (Herbicidal ratio of 5% or lower (almost no effect)); P: Stellaria media, herbicidal effect grade (Stellaria media): 0 (Herbicidal ratio of 5% or lower (almost no effect)); b: directly sowed rice plant, effect on crop grade (rice; [4]): 5 (Herbicidal ratio of 90% or more (almost completely withered)); G: Setaria viridis, herbicidal effect grade (Setaria viridis): 3 (Herbicidal ratio of 40% or higher and lower than 70%); F: Digitaria ciliaris, herbicidal effect grade (Digitaria ciliaris; [4]): 5 (Herbicidal ratio of 90% or more (almost completely withered)); f: beet, effect on crop grade (beet; [4]): 0 (Herbicidal ratio of 5% or lower (almost no effect)); H: Echinochloa crus-galli var. crus-galli, herbicidal effect grade [1, 4]: 5 (Herbicidal ratio of 90% or more (almost completely withered)); R: Veronica persica, herbicidal effect grade (Veronica persica): 0 (Herbicidal ratio of 5% or lower (almost no effect)); O: Chenopodium album, herbicidal effect grade (Chenopodium album [2]; [4]): 0 (Herbicidal ratio of 5% or lower (almost no effect)); J: Alopecurus myosuroides, herbicidal effect grade (Alopecurus myosuroides): 4 (Herbicidal ratio of 70% or higher and lower than 90%); O: Chenopodium album, herbicidal effect grade (Chenopodium album [3]): 0 (Herbicidal ratio of 5% or lower (almost no effect)) |
